Experimental data as given in US12503452B2 (Curza Global, LLC, priority 2019, dated 2025).
Counter-ions that a name gives are not always drawn. Like-named read-outs stand apart in the source and are kept apart here.

Assays:
[1] = target: Rabbit Reticulocyte Lysate (eukaryotic protein synthesis); test: Rabbit reticulocyte lysate luciferase assay (inhibition of eukaryotic protein synthesis); format: biochemical; conditions: read-out: Rabbit reticulocyte IC50 (μM/% inhib.)
Method in brief: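 Compounds were tested in 8-point 2-fold dilution series for blocking luciferase synthesis in nuclease-treated rabbit reticulocyte lysate (30° C., 90 minutes). Luminescence read-out, corrected by no-RNA background, was expressed as % inhibition against water-only reactions.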

E. faecalis (Ef) = test: Broth microdilution minimum inhibitory concentration (MIC); format: cell-based; conditions: for MIC: Enterococcus faecalis, read-out: Ef + bicarb MIC
Method in brief: (§1)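 Two-fold compound series, 8 points in triplicate; medium CAMHB ± NaHCO3 (6.25 or 25 mM final) or ± 0–50% heat-inactivated human serum; inoculum 5×10^4 CFU/well; growth-method 0.5 McFarland suspensions; modified CLSI M07-A9.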

P. aeruginosa (Pa) = test: as above; format: cell-based; conditions: for MIC: Pseudomonas aeruginosa, read-out: Pa MIC + bicarb
Method in brief: as §1

S. aureus (Sa) = test: as above; format: cell-based; conditions: for MIC: Staphylococcus aureus, read-out: Sa + bicarb MIC
Method in brief: as §1

E. coli (Ec) = test: as above; format: cell-based; conditions: for MIC: Escherichia coli, read-out: E. coli + bicarb MIC
Method in brief: as §1

A. baumannii (Ab) = test: as above; format: cell-based; conditions: for MIC: Acinetobacter baumannii, read-out: Ab + bicarb MIC
Method in brief: as §1

[2] = system: E. coli S30 extract (bacterial protein synthesis); test: E. coli S30 extract coupled transcription-translation luciferase assay (inhibition of bacterial protein synthesis); format: biochemical; conditions: read-out: S30 IC50 (μM/% inhib.)
Method in brief: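 Luminescent read-out of luciferase made from pBESTluc DNA by E. coli S30 extract after 1 h at 37 °C with compound in an 8-point 2-fold series. Background came from no-DNA reactions. Percent inhibition was calculated against water-only controls.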

[3] = class by IC50 or % inhibition @ 1 μM
[4] = E. faecalis, growth medium supplemented with sodium bicarbonate
[5] = P. aeruginosa, growth medium supplemented with sodium bicarbonate
[6] = S. aureus, growth medium supplemented with sodium bicarbonate
[7] = E. coli, growth medium supplemented with sodium bicarbonate
[8] = A. baumannii, growth medium supplemented with sodium bicarbonate
[9] = E. faecalis, growth medium with sodium bicarbonate
[10] = P. aeruginosa, growth medium with sodium bicarbonate
[11] = S. aureus, growth medium with sodium bicarbonate
[12] = E. coli, growth medium with sodium bicarbonate
[13] = A. baumannii, growth medium with sodium bicarbonate

SMILES	IC50 [1, 3] [µM]	MIC (E. faecalis (Ef); [4]) [µg/mL]	MIC (P. aeruginosa (Pa); [5]) [µg/mL]	MIC (S. aureus (Sa); [6]) [µg/mL]	MIC (E. coli (Ec); [7]) [µg/mL]	MIC (A. baumannii (Ab); [8]) [µg/mL]	IC50 [2, 3] [µM]	MIC (E. faecalis (Ef); [9]) [µg/mL]	MIC (P. aeruginosa (Pa); [10]) [µg/mL]	MIC (S. aureus (Sa); [11]) [µg/mL]	MIC (E. coli (Ec); [12]) [µg/mL]	MIC (A. baumannii (Ab); [13]) [µg/mL]	also measured
CC(Cc1ccc(-n2ccc(NC(=O)N3CCN(C(=O)C(C)(C)N)CC3)nc2=O)cc1)NC1CCC(CN)CC1 (stereo not shown) [Compound 152]	> 1	> 32	> 32	< 8	< 8	> 32	> 1						
CC(CN1CC[C@@H](CN)C1)Oc1ccc(-n2ccc(NC(=O)N3CCN(C(=O)C(C)(C)N)CC3)nc2=O)cc1 (stereo partly shown) [Compound 185]	> 1						< 0.5	8 to 32	> 32	< 8	< 8	> 32	
CC(C)N(Cc1ccc(-n2ccc(NC(=O)N3CCN(C(=O)C(C)(C)N)CC3)nc2=O)cc1)C1CCC(N)CC1 (stereo not shown) [Compound 356]								> 32	> 32	> 32	> 32	> 32	IC50 ([1]; % inhibition @ 1 μM): > 1 µM; IC50 ([2]; % inhibition @ 1 μM): > 1 µM
CCN(Cc1ccc(-n2ccc(NC(=O)N3CCN(C(=O)C(C)(C)N)CC3)nc2=O)cc1)CC1CC(N)C1 (stereo not shown) [Compound 128]	> 1	< 8	8 to 32	< 8	< 8	> 32	< 0.5						
CC(C)(N)C(=O)N1CCN(C(=O)Nc2ccn(-c3ccc(CN(CC4CC4)[C@H]4CC[C@H](N)CC4)cc3)c(=O)n2)CC1 [Compound 130]	> 1	< 8	8 to 32	< 8	< 8	8 to 32	< 0.5						
CC(C)(N)C(=O)N1CCN(C(=O)Nc2ccn(-c3ccc(CN4CCC(CN)CC4)cc3)c(=O)n2)CC1 [Compound 245]	> 1						< 0.5	< 8	> 32	< 8	< 8	> 32	
CC(C)(N)C(=O)N1CCN(C(=O)Nc2ccn(-c3ccc(C(N)C(=O)N4CC(N)C4)cc3)c(=O)n2)CC1 (stereo not shown) [Compound 144]	> 1	> 32	> 32	> 32	> 32	> 32	> 1						
CC(Cc1ccc(-n2ccc(NC(=O)N3CCN(C(=O)C(C)(C)N)CC3)nc2=O)cc1)NCC1CNC1 (stereo not shown) [Compound 165]	> 1						> 1	> 32	> 32	> 32	8 to 32	> 32	
C[C@@](N)(CO)C(=O)N1CCN(C(=O)Nc2ccn(-c3ccc(CCN4CCC(N)CC4)cc3)c(=O)n2)CC1 [Compound 199]	> 1						< 0.5	> 32	> 32	8 to 32	< 8	> 32	
CC(C)(N)C(=O)N1CCN(C(=O)Nc2ccn(-c3ccc(CCN4CCCC(N)CC4)cc3)c(=O)n2)CC1 (stereo not shown) [Compound 21]	> 1	< 8	8 to 32	< 8	< 8	> 32	< 0.5						
CC(Cc1ccc(-n2ccc(NC(=O)N3CCN(C(=O)C(C)(C)N)CC3)nc2=O)cc1)N1CC(CCN)C1 (stereo not shown) [Compound 347, hydrochloride salt]	> 1						0.5 to 1						MIC (E. faecalis (Ef)): > 32 µg/mL; MIC (P. aeruginosa (Pa)): > 32 µg/mL; MIC (S. aureus (Sa)): 8 to 32 µg/mL; MIC (E. coli (Ec)): < 8 µg/mL; MIC (A. baumannii (Ab)): > 32 µg/mL
CC(C)(N)C(=O)N1CCN(C(=O)Nc2ccn(-c3ccc(CN(CCF)[C@H]4CC[C@H](N)CC4)cc3)c(=O)n2)CC1 [Compound 138]	> 1	> 32	> 32	< 8	< 8	> 32	0.5 to 1						
CC(C)(N)C(=O)N1CCN(C(=O)Nc2ccn(-c3ccc(CCCN4CCCC(N)CC4)cc3)c(=O)n2)CC1 (stereo not shown) [Compound 31]	> 1	8 to 32	> 32	< 8	< 8	> 32	< 0.5						
CN(Cc1ccc(-n2ccc(NC(=O)N3CCN(C(=O)[C@@](C)(N)CO)CC3)nc2=O)cc1)C1CCC(N)CC1 (stereo partly shown) [Compound 286]	> 1						< 0.5	< 8	> 32	< 8	< 8	> 32	
C[C@@H]1CN(C(=O)Nc2ccn(-c3ccc(CN4CCC(N)CC4)cc3)c(=O)n2)CCN1C(=O)C(C)(C)N [Compound 79]	> 1	8 to 32	> 32	< 8	< 8	> 32	< 0.5						
CCN(Cc1ccc(-n2ccc(NC(=O)N3CCN(C(=O)C(C)(C)N)CC3)nc2=O)cc1C(F)(F)F)C1CCC(N)CC1 (stereo not shown) [Compound 276]	> 1						0.5 to 1	< 8	> 32	< 8	< 8	> 32	
Cc1cc(-n2ccc(NC(=O)N3CCN(C(=O)C(C)(C)N)CC3)nc2=O)ccc1CN(C)C1CCC(N)CC1 (stereo not shown) [Compound 284]	> 1						< 0.5	< 8	8 to 32	< 8	< 8	< 8	
CN(Cc1ccc(-n2ccc(NC(=O)N3CCN(C(=O)C(C)(C)N)CC3)nc2=O)cc1)CC1CC(N)C1 (stereo not shown) [Compound 127]	> 1	< 8	> 32	< 8	< 8	> 32	< 0.5						
CC(N)C1CCN(Cc2ccc(-n3ccc(NC(=O)N4CCN(C(=O)C(C)(C)N)CC4)nc3=O)cc2)CC1 (stereo not shown) [Compound 299, hydrochloride salt]	> 1												Ef + bicarb MIC (E. faecalis (Ef); E. faecalis, growth medium with sodium bicarbonate, hydrochloride salt): ++ (An MIC value (μg/mL) that is 8 μg/mL or greater and less than 32 μg/mL); Pa MIC + bicarb (P. aeruginosa (Pa); [10]): + (An MIC value (μg/mL) that is 32 μg/mL or greater); Sa + bicarb MIC (S. aureus (Sa); [11]): +++ (An MIC value (μg/mL) that is less than 8 μg/mL); E. coli + bicarb MIC (E. coli (Ec); [12]): +++ (An MIC value (μg/mL) that is less than 8 μg/mL); Ab + bicarb MIC (A. baumannii (Ab); [13]): + (An MIC value (μg/mL) that is 32 μg/mL or greater); IC50 ([2]; class by IC50 or % inhibition @ 1 μM, hydrochloride salt): 0.5 to 1 µM
CCN(Cc1ccc(-n2ccc(NC(=O)N3CCN(C(=O)C(C)(C)N)[C@H](C)C3)nc2=O)cc1)C1CCC(N)CC1 (stereo partly shown) [Compound 274]	> 1						< 0.5	< 8	8 to 32	< 8	< 8	< 8	
C[C@](N)(CO)C(=O)N1CCN(C(=O)Nc2ccn(-c3ccc(CNC4CCC(N)CC4)cc3)c(=O)n2)CC1 (stereo partly shown) [Compound 288]	> 1						< 0.5	< 8	> 32	< 8	< 8	> 32	
CC(C)(N)C(=O)N1CCN(C(=O)Nc2ccn(-c3ccc(CN4CC[C@@H](N)[C@@H](F)C4)cc3)c(=O)n2)CC1 [Compound 209]	> 1						> 1	> 32	> 32	> 32	< 8	> 32	
C[C@@H]1CN(Cc2ccc(-n3ccc(NC(=O)N4CCN(C(=O)C(C)(C)N)CC4)nc3=O)cc2)CC[C@H]1N [Compound 210]	> 1						< 0.5	< 8	> 32	< 8	< 8	> 32	
CC(C)(N)C(=O)N1CCN(C(=O)Nc2ccn(-c3cccc(CCN4CC[C@H](CN)C4)c3)c(=O)n2)CC1 (stereo in doubt) [Compound 24]	> 1	> 32	> 32	8 to 32	8 to 32	> 32	< 0.5						
CN(Cc1ccc(-n2ccc(NC(=O)N3CCN(C(=O)C(C)(C)N)CC3)nc2=O)cc1Cl)C1CCC(N)CC1 (stereo not shown) [Compound 272]	> 1						< 0.5	< 8	8 to 32	< 8	< 8	< 8	
